SMILES strings stand for the structures.

For assay [1], the target named is Tyrosine-protein kinase SYK (Homo sapiens, UniProt P43405). Put plainly: Selectivity interaction (ActivX KiNativ screen (ex vivo kinase selectivity in human PBMCs)) EUB0001619a SYK. The following applies: PBMC, at 1 µM. It is filed as cell-based.
Assay [2] deals with Mast/stem cell growth factor receptor Kit (Homo sapiens), P10721 [D816V]. The following applies: at 10 µM.
In assay [3] the test system is eIF-2-alpha kinase GCN2 (Homo sapiens), Q9P2K8 [S808G]. The assay can be described thus: Selectivity interaction (KinomeScan (DiscoverX)) EUB0000695a EIF2AK4. The following applies: at 100 nM.
For assay [4], the target named is Serine/threonine-protein kinase 24 (Homo sapiens) (UniProt Q9Y6E0). The assay can be described thus: Selectivity interaction (KinomeScan (DiscoverX)) EUB0000666a STK24. The following applies: at 10 µM.
Assay [5] concerns the target Ribosomal protein S6 kinase alpha-5 (Homo sapiens) (UniProt O75582). The assay can be described thus: Selectivity interaction (KinomeScan (DiscoverX)) EUB0000666a RPS6KA5. The following applies: at 10 µM.
Assay [6] addresses Dual specificity protein kinase CLK3 (Homo sapiens, UniProt P49761). The assay can be described thus: Selectivity interaction (KinomeScan (DiscoverX)) EUB0000607a CLK3. The following applies: at 10 µM.
Assay [7] addresses Serine/threonine-protein kinase OSR1 (Homo sapiens) (UniProt O95747). Put plainly: Selectivity interaction (KinomeScan (DiscoverX)) EUB0000607a OXSR1. The following applies: at 10 µM.
The target in assay [8] is Serine/threonine-protein kinase 32C (Homo sapiens) (UniProt Q86UX6). Put plainly: Selectivity interaction (ActivX KiNativ screen (kinase selectivity in THP-1 cell lysates)) EUB0000639a STK32C. In kind it is subcellular. The following applies: lysate.
Assay [9] deals with Mitogen-activated protein kinase 1 (Homo sapiens, UniProt P28482). Put plainly: Selectivity interaction (ActivX KiNativ screen (kinase selectivity in THP-1 cell lysates)) EUB0000639a MAPK1. The following applies: lysate, at 5 µM. In kind it is subcellular.
Assay [10] deals with T1, Serine/threonine-protein kinase Nek11 (Homo sapiens) (UniProt Q8NG66).
T1 sequence (whole entry): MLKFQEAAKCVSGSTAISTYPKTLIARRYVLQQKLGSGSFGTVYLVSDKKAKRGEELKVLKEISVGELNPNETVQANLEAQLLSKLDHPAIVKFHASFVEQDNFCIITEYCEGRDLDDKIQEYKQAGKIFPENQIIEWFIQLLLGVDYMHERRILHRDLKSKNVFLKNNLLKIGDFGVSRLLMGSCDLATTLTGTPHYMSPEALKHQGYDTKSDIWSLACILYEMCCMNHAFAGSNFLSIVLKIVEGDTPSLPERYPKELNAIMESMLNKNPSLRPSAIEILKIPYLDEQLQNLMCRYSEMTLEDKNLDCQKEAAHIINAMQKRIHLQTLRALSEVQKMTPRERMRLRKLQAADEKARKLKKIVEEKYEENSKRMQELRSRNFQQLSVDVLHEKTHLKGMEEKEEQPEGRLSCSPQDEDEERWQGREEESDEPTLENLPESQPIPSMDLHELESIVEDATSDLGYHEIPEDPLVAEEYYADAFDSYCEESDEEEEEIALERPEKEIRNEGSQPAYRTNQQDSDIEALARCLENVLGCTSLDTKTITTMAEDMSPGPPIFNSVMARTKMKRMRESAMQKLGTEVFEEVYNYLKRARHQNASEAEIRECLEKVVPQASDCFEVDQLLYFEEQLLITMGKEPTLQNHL
The assay can be described thus: Selectivity interaction (ProQinase) EUB0000171b NEK11.

For assay [11], the target named is BMP-2-inducible protein kinase (Homo sapiens) (UniProt Q9NSY1). The assay can be described thus: Selectivity interaction (KINOMEscan (DiscoverX)) EUB0001868a BMP2K. The following applies: at 1 µM.
Assay [12] deals with Dual specificity protein kinase CLK1 (Homo sapiens, UniProt P49759). The assay can be described thus: Selectivity interaction (KinomeScan (DiscoverX)) EUB0000655a CLK1. The following applies: at 10 µM.
Assay [13] addresses Platelet-derived growth factor receptor alpha (Homo sapiens, UniProt P16234). The assay can be described thus: Selectivity interaction (KinomeScan (DiscoverX)) EUB0000655a PDGFRA. The following applies: at 10 µM.
Assay [14] deals with RAC-beta serine/threonine-protein kinase (Homo sapiens) (UniProt P31751). The assay can be described thus: Selectivity interaction (KinomeScan (DiscoverX)) EUB0000618a AKT2. The following applies: at 10 µM.
Assay [15] addresses T2, Rhodopsin kinase GRK1 (Homo sapiens) (UniProt Q15835).
T2 sequence (whole entry): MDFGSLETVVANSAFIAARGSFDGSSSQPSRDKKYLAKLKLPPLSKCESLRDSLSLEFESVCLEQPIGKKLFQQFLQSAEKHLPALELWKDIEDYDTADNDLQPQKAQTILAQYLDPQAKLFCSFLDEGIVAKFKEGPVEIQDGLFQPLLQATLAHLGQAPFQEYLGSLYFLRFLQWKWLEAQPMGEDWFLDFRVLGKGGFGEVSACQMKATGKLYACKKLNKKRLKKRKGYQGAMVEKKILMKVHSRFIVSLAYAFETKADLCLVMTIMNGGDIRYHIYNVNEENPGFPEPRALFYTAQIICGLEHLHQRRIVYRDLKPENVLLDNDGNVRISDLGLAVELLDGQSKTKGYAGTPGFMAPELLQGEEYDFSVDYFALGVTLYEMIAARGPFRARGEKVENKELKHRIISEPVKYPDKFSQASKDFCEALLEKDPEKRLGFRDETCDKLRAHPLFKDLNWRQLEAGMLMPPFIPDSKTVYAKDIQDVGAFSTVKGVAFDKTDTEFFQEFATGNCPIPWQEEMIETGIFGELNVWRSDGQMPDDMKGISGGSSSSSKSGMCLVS
Put plainly: Selectivity interaction (KinomeScan (DiscoverX)) EUB0001079a GRK1. The following applies: at 1 µM.

The target of assay [16] is Ribosomal protein S6 kinase alpha-3 (Homo sapiens, UniProt P51812). The assay can be described thus: Selectivity interaction (Millipore kinase profiler) EUB0000124b RPS6KA3. The following applies: at 10 µM.
Chain of Ribosomal protein S6 kinase alpha-3 (P51812 whole entry): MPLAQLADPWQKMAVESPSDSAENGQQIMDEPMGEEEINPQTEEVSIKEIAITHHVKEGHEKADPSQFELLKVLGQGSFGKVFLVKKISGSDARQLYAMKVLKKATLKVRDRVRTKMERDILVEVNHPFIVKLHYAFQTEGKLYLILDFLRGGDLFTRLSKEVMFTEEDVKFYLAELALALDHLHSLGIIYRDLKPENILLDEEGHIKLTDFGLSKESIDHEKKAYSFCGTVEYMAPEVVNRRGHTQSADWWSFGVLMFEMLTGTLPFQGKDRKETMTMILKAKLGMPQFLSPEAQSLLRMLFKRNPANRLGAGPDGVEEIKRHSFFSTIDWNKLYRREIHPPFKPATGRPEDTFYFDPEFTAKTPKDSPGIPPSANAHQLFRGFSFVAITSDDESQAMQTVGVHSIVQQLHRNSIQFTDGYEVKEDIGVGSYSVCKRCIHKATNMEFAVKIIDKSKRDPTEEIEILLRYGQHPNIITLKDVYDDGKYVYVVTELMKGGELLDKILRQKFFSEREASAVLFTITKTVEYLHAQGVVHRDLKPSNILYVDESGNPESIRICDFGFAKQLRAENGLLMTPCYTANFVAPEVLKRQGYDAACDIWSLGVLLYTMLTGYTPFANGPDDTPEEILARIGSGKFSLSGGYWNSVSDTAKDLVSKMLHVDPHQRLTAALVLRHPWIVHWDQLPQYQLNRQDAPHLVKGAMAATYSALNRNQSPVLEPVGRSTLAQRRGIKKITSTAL

Chain of Serine/threonine-protein kinase 32C (Homo sapiens) (Q86UX6 whole entry): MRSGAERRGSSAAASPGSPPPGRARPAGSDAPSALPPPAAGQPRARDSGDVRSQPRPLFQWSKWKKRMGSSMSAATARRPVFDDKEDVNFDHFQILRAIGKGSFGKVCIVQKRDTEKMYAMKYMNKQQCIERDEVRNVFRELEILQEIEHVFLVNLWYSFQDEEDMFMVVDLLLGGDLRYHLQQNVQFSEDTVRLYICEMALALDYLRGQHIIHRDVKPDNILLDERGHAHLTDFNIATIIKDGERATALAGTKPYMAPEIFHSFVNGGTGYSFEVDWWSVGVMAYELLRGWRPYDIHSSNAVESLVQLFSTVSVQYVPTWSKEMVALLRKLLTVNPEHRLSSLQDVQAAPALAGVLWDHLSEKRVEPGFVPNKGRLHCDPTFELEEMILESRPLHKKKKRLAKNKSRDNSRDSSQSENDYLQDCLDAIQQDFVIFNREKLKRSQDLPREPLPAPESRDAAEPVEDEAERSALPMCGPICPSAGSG
Chain of Mitogen-activated protein kinase 1 (P28482 whole entry): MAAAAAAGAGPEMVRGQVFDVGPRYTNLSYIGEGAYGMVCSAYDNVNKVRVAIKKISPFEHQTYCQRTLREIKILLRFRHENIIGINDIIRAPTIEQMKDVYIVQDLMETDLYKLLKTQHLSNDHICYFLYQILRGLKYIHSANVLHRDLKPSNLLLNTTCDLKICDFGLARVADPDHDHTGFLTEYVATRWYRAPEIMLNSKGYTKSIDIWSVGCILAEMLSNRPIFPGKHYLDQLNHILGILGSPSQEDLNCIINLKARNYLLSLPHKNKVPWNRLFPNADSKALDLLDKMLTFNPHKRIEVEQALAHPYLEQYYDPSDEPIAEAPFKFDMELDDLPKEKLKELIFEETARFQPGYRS
Chain of Serine/threonine-protein kinase 24 (Homo sapiens) (Q9Y6E0 whole entry, looked up): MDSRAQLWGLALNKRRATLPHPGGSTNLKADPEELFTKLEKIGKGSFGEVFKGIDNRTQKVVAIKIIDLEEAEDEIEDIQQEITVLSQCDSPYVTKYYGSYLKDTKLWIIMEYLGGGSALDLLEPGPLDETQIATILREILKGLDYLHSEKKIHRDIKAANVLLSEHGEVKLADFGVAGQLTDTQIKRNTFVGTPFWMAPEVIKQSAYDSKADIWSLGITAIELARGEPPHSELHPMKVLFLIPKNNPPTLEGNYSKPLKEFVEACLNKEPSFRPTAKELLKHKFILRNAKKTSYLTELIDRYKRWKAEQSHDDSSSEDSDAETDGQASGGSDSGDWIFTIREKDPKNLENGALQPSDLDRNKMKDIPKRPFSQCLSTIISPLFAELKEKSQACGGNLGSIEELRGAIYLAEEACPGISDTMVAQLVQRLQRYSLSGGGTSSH
Chain of Ribosomal protein S6 kinase alpha-5 (Homo sapiens) (O75582 whole entry, looked up): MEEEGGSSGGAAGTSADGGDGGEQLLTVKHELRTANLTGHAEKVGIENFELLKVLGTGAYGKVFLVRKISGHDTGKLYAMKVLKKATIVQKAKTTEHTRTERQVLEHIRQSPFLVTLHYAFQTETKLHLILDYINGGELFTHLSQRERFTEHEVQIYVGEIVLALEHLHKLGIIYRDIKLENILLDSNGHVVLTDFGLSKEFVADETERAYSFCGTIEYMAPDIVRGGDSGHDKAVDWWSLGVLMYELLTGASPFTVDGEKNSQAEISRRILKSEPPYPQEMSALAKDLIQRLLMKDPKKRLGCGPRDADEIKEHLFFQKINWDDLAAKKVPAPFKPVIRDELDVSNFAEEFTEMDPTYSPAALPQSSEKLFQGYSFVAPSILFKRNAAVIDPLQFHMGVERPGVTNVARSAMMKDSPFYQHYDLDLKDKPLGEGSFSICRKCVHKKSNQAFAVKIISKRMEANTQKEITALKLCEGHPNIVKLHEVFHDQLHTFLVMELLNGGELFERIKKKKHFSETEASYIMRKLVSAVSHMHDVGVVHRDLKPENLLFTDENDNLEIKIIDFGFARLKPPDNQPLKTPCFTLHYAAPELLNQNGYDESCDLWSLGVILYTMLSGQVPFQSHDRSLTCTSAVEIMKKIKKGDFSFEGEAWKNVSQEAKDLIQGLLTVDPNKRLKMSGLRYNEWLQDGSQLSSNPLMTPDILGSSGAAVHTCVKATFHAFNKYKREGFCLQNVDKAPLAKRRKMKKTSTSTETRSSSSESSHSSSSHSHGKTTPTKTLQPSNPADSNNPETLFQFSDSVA
Chain of Dual specificity protein kinase CLK1 (P49759 whole entry, looked up): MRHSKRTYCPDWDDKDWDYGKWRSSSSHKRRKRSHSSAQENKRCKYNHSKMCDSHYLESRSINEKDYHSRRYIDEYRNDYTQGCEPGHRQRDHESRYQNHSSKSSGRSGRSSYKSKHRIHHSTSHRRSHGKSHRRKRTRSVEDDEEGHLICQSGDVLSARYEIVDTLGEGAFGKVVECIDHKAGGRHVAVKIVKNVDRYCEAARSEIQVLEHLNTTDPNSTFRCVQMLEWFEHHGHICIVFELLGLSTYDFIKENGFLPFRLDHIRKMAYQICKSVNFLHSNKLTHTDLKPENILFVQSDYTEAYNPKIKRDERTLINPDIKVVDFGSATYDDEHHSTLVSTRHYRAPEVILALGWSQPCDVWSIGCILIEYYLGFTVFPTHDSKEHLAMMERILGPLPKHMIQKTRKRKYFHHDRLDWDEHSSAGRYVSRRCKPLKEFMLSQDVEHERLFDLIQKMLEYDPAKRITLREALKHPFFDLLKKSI
Chain of Serine/threonine-protein kinase OSR1 (Homo sapiens) (O95747 2-527 limits assumed): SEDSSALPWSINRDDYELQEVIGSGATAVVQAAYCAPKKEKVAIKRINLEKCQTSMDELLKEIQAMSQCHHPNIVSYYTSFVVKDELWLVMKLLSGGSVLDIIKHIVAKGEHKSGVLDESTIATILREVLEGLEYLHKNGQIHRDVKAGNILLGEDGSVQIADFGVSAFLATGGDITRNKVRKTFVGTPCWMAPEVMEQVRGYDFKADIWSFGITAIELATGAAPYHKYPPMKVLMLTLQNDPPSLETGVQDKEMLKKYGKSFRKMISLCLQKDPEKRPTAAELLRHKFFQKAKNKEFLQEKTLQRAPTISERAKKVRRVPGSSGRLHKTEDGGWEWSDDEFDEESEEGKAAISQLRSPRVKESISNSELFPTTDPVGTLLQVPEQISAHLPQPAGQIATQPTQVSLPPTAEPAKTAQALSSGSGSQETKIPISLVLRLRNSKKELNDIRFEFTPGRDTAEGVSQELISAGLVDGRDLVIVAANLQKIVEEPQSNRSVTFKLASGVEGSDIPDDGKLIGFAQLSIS
Chain of BMP-2-inducible protein kinase (Homo sapiens) (Q9NSY1 whole entry, looked up): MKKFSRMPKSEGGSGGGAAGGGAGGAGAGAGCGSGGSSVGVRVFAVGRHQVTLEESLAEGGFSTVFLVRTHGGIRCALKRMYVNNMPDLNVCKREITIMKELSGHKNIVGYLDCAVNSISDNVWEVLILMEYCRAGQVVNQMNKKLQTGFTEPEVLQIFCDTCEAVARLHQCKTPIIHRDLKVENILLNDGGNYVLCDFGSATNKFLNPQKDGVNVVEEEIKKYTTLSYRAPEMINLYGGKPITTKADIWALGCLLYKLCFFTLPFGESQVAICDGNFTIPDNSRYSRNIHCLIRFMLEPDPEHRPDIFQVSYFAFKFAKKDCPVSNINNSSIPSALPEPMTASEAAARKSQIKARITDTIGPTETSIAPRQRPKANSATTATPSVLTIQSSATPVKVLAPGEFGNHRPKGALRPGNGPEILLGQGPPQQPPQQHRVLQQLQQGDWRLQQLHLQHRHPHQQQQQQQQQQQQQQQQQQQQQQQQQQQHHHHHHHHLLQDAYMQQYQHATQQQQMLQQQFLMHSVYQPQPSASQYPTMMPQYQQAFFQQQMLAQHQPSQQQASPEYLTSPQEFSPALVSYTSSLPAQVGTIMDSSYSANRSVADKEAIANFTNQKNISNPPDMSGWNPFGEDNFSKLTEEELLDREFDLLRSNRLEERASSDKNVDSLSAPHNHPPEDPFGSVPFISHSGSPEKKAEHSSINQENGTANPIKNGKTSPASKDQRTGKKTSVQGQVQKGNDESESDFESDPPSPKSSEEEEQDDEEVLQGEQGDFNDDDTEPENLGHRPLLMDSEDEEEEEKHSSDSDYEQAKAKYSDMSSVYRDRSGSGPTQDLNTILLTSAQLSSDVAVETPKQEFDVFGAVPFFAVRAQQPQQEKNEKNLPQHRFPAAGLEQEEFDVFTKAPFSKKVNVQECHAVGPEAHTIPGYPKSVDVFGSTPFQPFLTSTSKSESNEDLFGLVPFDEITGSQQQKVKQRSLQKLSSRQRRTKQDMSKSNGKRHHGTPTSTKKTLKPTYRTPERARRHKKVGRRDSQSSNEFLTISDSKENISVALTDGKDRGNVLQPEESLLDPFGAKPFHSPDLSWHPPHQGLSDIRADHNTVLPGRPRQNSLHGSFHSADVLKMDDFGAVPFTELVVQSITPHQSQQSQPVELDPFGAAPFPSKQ

Consider `N#Cc1cccc(-c2c[nH]c3ncnc(N4CCOCC4)c23)c1`, for which, in assay [1], the % of inhibition is -12%. The compound `CCN(CC)CCCCNc1ncc2cc(-c3cc(OC)cc(OC)c3)c(NC(=O)NC(C)(C)C)nc2n1` came in with a % of control in assay [2] of 100%. `Cc1cc(F)c(C(=O)Nc2cccc(-c3nncn3C(C)C)n2)cc1-n1cnc(C2CC2)c1`: the % of control in assay [3] amounted to 77%.

On to `O=C(NOC[C@H](O)CO)c1ccc(F)c(F)c1Nc1ccc(I)cc1F`, for which the figures for the % of control in [4] and in assay [5] were 88% and 100%, respectively. For `CNC(=O)Nc1ccc(-c2nc(N3CC4CCC(C3)O4)c3cnn(C4CCC5(CC4)OCCO5)c3n2)cc1`, the % of control in assay [6] turned out to be 31%; in assay [7] it was 100%. For the compound `CC[C@@H]1[C@H](F)C(=O)N[C@@H]1COc1nccc2cc(C(N)=O)c(OC)cc12` [ZIMLOVISERTIB], the % of inhibition in [8] (at 0.01 µM) was -1.5%; in assay [8] (at 0.04 µM) it was -7.2%; in [8] (at 0.2 µM), -0.3%; in assay [8] (at 1 µM), -5.2%; in assay [8] (at 5 µM), -11.5%; in [9] it was 25.2%. With `C=CC(=O)Nc1cccc(C(=O)Nc2ccc(Nc3cc(-c4[nH]c(SC)nc4C)ccn3)cc2)c1`, the % of control in assay [10] (at 1 µM) was 103%; in assay [10] (at 5 µM), 87%. Compound `Cc1cc(-c2ccnc(Nc3cnn(C)c3)n2)ccc1CNC(=O)N1CC(OC(C)C)C1` displayed a % of control in assay [11] of 18%.

For `CN(C)CCOc1ccc(-c2nc(-c3ccncc3)c(-c3ccc4c(c3)CC/C4=N\O)[nH]2)cc1`, the values for the % of control in assay [12] and in [13] were 77% and 100%, respectively.

The compound `O[C@H]1CC[C@H](Nc2ncc3nc(Nc4c(F)cc(F)cc4F)n([C@H]4CCOC4)c3n2)CC1` registered a % of control in [14] of 100%. `Nc1cnc(N2CCc3cc(S(=O)(=O)Nc4c(F)cc(Cl)cc4F)cc(N4CCCC4=O)c32)nc1` [TP-020n] displayed a % of control in assay [15] of 100%. For the compound `CC(=O)Nc1cccc(-n2c(=O)n(C3CC3)c(=O)c3c(Nc4ccc(I)cc4F)n(C)c(=O)c(C)c32)c1`, the % of control in [16] was 94%.
